65 compounds from patent publication US7888363B2, “Viral polymerase inhibitors” (Boehringer Ingelheim International GmbH, priority 2003, dated 2011) can be followed below.

Broadly, the IC50 is the concentration that gives 50% inhibition. The low end stands for greater potency, the high end for weaker potency.

hepatitis C virus RNA dependant polymerase (NS5B), sequence (P26663 2420-3010): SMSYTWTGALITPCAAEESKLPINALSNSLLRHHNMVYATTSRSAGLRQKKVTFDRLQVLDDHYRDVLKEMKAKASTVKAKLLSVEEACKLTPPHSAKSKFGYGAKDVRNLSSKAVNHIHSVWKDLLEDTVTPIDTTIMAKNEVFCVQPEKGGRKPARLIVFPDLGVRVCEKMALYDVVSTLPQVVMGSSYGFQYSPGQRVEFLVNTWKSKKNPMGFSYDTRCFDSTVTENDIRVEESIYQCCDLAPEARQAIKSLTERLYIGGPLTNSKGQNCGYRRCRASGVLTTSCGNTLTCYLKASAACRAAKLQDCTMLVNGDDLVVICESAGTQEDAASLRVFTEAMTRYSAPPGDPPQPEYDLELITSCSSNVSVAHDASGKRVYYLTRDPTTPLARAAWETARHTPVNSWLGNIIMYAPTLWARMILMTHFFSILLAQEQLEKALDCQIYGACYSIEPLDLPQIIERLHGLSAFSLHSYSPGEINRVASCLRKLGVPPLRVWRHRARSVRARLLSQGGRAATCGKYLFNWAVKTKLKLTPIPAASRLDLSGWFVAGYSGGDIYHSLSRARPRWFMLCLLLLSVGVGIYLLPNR

The assay deals with hepatitis C virus RNA dependant polymerase (NS5B) (Hepatitis C virus genotype 1b, UniProt P26663). Kind of assay: Inhibition of NS5B RNA dependent RNA polymerase activity. Format: biochemical. The conditions noted are these: Table 1; HCV NS5B polymerase. How it is done:
A suitable assay is described in the examples.
Inhibition of NS5B RNA Dependent RNA Polymerase Activity
The compounds of the invention were tested for inhibitory activity against the hepatitis C virus RNA dependant polymerase (NS5B), according to protocol described in WO 03/010141
As to `O=C(Cn1c(-c2ccoc2)c(C2CCCCC2)c2ccc(C(=O)O)cc21)Nc1cccc(C(=O)O)c1` [Example 1070], the 50% inhibitory concentration (IC50) lay in the range of 200 to 1000 nM. The result for `O=C(O)/C=C/c1ccc(NC(=O)Cn2c(-c3ccoc3)c(C3CCCCC3)c3ccc(C(=O)O)cc32)cc1` [Example 1071] reads 200 to 1000 nM; that for `CN(CC(=O)O)C(=O)Cn1c(-c2ccoc2)c(C2CCCCC2)c2ccc(C(=O)O)cc21` [Example 1072], less than 200 nM.

In turn, `O=C(O)CCNC(=O)Cn1c(-c2ccoc2)c(C2CCCCC2)c2ccc(C(=O)O)cc21` [Example 1073] returned a half-inhibitory concentration (IC50) of less than 200 nM.

Turning to `O=C(O)CN1CCN(C(=O)Cn2c(-c3ccoc3)c(C3CCCCC3)c3ccc(C(=O)O)cc32)CC1` [Example 1074], the IC50 is less than 200 nM. In turn, `O=C(Cn1c(-c2ccoc2)c(C2CCCCC2)c2ccc(C(=O)O)cc21)NCc1ccc(C(=O)O)cc1` [Example 1075] had a half-inhibitory concentration (IC50) of less than 200 nM. For `O=C(Cn1c(-c2ccoc2)c(C2CCCCC2)c2ccc(C(=O)O)cc21)NNC(=O)NC[C@H]1CC[C@H](C(=O)O)CC1` [Example 1076] the value was less than 200 nM; for `O=C(O)/C=C/c1ccc(NC(=O)[C@]2(NC(=O)Cn3c(-c4ccoc4)c(C4CCCCC4)c4ccc(C(=O)O)cc43)CCNC2)cc1` [Example 1077], less than 200 nM; for `O=C(O)/C=C/c1ccc(NC(=O)[C@@]2(NC(=O)Cn3c(-c4ccoc4)c(C4CCCCC4)c4ccc(C(=O)O)cc43)CCNC2)cc1` [Example 1079], less than 200 nM. The result for `O=C(O)/C=C/c1ccc(NC(=O)C2(NC(=O)Cn3c(-c4ccoc4)c(C4CCCCC4)c4ccc(C(=O)O)cc43)CCNCC2)cc1` [Example 1080] reads less than 200 nM; that for `O=C(Cn1c(-c2ccoc2)c(C2CCCCC2)c2ccc(C(=O)O)cc21)N[C@@H](Cc1c[nH]c2ccc(O)cc12)C(=O)O` [Example 1081], less than 200 nM. As for `CN1CCN(C(=O)Cn2c(-c3ccccn3)c(C3CCCCC3)c3ccc(C(=O)O)cc32)CC1` [Example 1082], the IC50 was less than 200 nM. As to `CC(C)(NC(=O)Cn1c(-c2ccccn2)c(C2CCCCC2)c2ccc(C(=O)O)cc21)C(=O)Nc1ccc(/C=C/C(=O)O)cc1` [Example 1083], the half-maximal inhibitory concentration (IC50) is 200 to 1000 nM.

`O=C(O)c1ccc2c(C3CCCCC3)c(-c3ccccn3)n(CC(=O)N3CCCC3)c2c1` [Example 1084] gave a half-maximal inhibitory concentration (IC50) of 200 to 1000 nM. Consider `O=C(O)c1ccc2c(C3CCCCC3)c(-c3ccccn3)n(CC(=O)N3CCCCC3)c2c1` [Example 1085], for which the half-maximal inhibitory concentration (IC50) lay in the range of 200 to 1000 nM.

Take `O=C(O)c1ccc2c(C3CCCC3)c(-c3ccccn3)n(CC(=O)N3CCCC3)c2c1` [Example 1086]: the IC50 fell in the range of 200 to 1000 nM. The result for `O=C(O)c1ccc2c(C3CCCC3)c(-c3ccccn3)n(CC(=O)N3CCCCC3)c2c1` [Example 1087] reads 200 to 1000 nM; that for `O=C(Cn1c(-c2ccoc2)c(C2CCCCC2)c2ccc(C(=O)O)cc21)NC1CCCCC1` [Example 1088], 200 to 1000 nM. For `O=C(Cn1c(-c2ccoc2)c(C2CCCCC2)c2ccc(C(=O)O)cc21)NCC1CCCCC1` [Example 1089] the value was 200 to 1000 nM.

In turn, `CN(CCO)C(=O)Cn1c(-c2ccoc2)c(C2CCCCC2)c2ccc(C(=O)O)cc21` [Example 1090] registered a half-inhibitory concentration (IC50) of less than 200 nM. For the compound `CC(C)N(C(=O)Cn1c(-c2ccoc2)c(C2CCCCC2)c2ccc(C(=O)O)cc21)C1CCCCC1` [Example 1091], the IC50 fell in the range of 200 to 1000 nM. The compound `CN(C(=O)Cn1c(-c2ccoc2)c(C2CCCCC2)c2ccc(C(=O)O)cc21)C1CCCCC1` [Example 1092] had a half-inhibitory concentration (IC50) of less than 200 nM.

`CCN(C(=O)Cn1c(-c2ccoc2)c(C2CCCCC2)c2ccc(C(=O)O)cc21)C1CCCCC1` [Example 1093] had an IC50 of 200 to 1000 nM. `O=C(O)c1ccc2c(C3CCCCC3)c(-c3ccoc3)n(CC(=O)N3CCCC3)c2c1` [Example 1094] gave an IC50 of less than 200 nM. For `O=C(O)c1ccc2c(C3CCCCC3)c(-c3ccoc3)n(CC(=O)N3CCN(c4ccccc4)CC3)c2c1` [Example 1095] the value was 200 to 1000 nM. `O=C(O)c1ccc2c(C3CCCCC3)c(-c3ccoc3)n(CC(=O)N3CCN(CCO)CC3)c2c1` [Example 1096] came in with an IC50 of less than 200 nM. The compound `O=C(O)c1ccc2c(C3CCCCC3)c(-c3ccoc3)n(CC(=O)N3CCOCC3)c2c1` [Example 1097] registered an IC50 of less than 200 nM. For `O=C(O)c1ccc2c(C3CCCCC3)c(-c3ccoc3)n(CC(=O)N3CCCC(C(=O)O)C3)c2c1` (centres unmarked) [Example 1099] the value was less than 200 nM.

The compound `O=C(O)c1ccc2c(C3CCCCC3)c(-c3ccoc3)n(CC(=O)N3CCC(O)CC3)c2c1` [Example 1100] had an IC50 of less than 200 nM. `CC1CCN(C(=O)Cn2c(-c3ccoc3)c(C3CCCCC3)c3ccc(C(=O)O)cc32)CC1` [Example 1101] returned a concentration for half-maximal inhibition (IC50) of 200 to 1000 nM.

As to `O=C(O)c1ccc2c(C3CCCCC3)c(-c3ccoc3)n(CC(=O)N3CCC(CCO)CC3)c2c1` [Example 1102], the 50% inhibitory concentration (IC50) is less than 200 nM. For `CN(CCc1ccccn1)C(=O)Cn1c(-c2ccoc2)c(C2CCCCC2)c2ccc(C(=O)O)cc21` [Example 1103] the value was less than 200 nM; for `CN1CCC(N(C)C(=O)Cn2c(-c3ccoc3)c(C3CCCCC3)c3ccc(C(=O)O)cc32)CC1` [Example 1104], less than 200 nM; for `CN(C)c1ccc(NC(=O)Cn2c(-c3ccoc3)c(C3CCCCC3)c3ccc(C(=O)O)cc32)cc1` [Example 1105], 200 to 1000 nM.

As to `CC(C)NC(=O)Cn1c(-c2ccoc2)c(C2CCCCC2)c2ccc(C(=O)O)cc21` [Example 1106], the IC50 lay in the range of 200 to 1000 nM. Regarding `COCCNC(=O)Cn1c(-c2ccoc2)c(C2CCCCC2)c2ccc(C(=O)O)cc21` [Example 1107], the IC50 was in the range of 200 to 1000 nM.

Compound `CC(C)N(C(=O)Cn1c(-c2ccoc2)c(C2CCCCC2)c2ccc(C(=O)O)cc21)C(C)C` [Example 1108] gave an IC50 of 200 to 1000 nM. The compound `O=C(O)CN(Cc1ccccc1)C(=O)Cn1c(-c2ccoc2)c(C2CCCCC2)c2ccc(C(=O)O)cc21` [Example 1109] gave an IC50 of 200 to 1000 nM. As to `CC(=O)NNC(=O)Cn1c(-c2ccoc2)c(C2CCCCC2)c2ccc(C(=O)O)cc21` [Example 1110], the 50% inhibitory concentration (IC50) is less than 200 nM. Turning to `CN(C)C(=O)Cn1c(-c2ccoc2)c(C2CCCCC2)c2ccc(C(=O)O)cc21` [Example 1111], the IC50 is less than 200 nM. The result for `CN(C)CCN(C)C(=O)Cn1c(-c2ccoc2)c(C2CCCCC2)c2ccc(C(=O)O)cc21` [Example 1112] reads less than 200 nM; that for `O=C(Cn1c(-c2ccoc2)c(C2CCCCC2)c2ccc(C(=O)O)cc21)NCC1CCCO1` (centres unmarked) [Example 1113], 200 to 1000 nM; that for `CN(Cc1cccnc1)C(=O)Cn1c(-c2ccoc2)c(C2CCCCC2)c2ccc(C(=O)O)cc21` [Example 1114], 200 to 1000 nM.

The compound `Cc1ccccc1N(C)C(=O)Cn1c(-c2ccoc2)c(C2CCCCC2)c2ccc(C(=O)O)cc21` [Example 1115] came in with an IC50 of 1000 to 10000 nM. As to `O=C(O)c1ccc2c(C3CCCCC3)c(-c3ccoc3)n(CC(=O)N3CCC(N4CCCC4)CC3)c2c1` [Example 1116], the IC50 was less than 200 nM. For `O=C(Cc1ccccc1)NNC(=O)Cn1c(-c2ccoc2)c(C2CCCCC2)c2ccc(C(=O)O)cc21` [Example 1117] the value was 200 to 1000 nM; for `CC(C)N(C)C(=O)Cn1c(-c2ccoc2)c(C2CCCCC2)c2ccc(C(=O)O)cc21` [Example 1118], less than 200 nM; for `CCC(NC(=O)Cn1c(-c2ccoc2)c(C2CCCCC2)c2ccc(C(=O)O)cc21)C(=O)O` (centres unmarked) [Example 1119], less than 200 nM.

Turning to `CCN1CCN(C(=O)Cn2c(-c3ccoc3)c(C3CCCCC3)c3ccc(C(=O)O)cc32)CC1` [Example 1120], the half-maximal inhibitory concentration (IC50) is less than 200 nM. Compound `CN(C)C(=O)CN(C)C(=O)Cn1c(-c2ccoc2)c(C2CCCCC2)c2ccc(C(=O)O)cc21` [Example 1121] showed an IC50 of less than 200 nM.

Compound `CN(C)C(=O)[C@@H]1CCCN1C(=O)Cn1c(-c2ccoc2)c(C2CCCCC2)c2ccc(C(=O)O)cc21` [Example 1122] showed a half-inhibitory concentration (IC50) of less than 200 nM. With `O=C(O)c1ccc2c(C3CCCCC3)c(-c3ccoc3)n(CC(=O)N3CCC[C@@H]3C(=O)O)c2c1` [Example 1123], the half-maximal inhibitory concentration (IC50) was in the range of 200 to 1000 nM.

`COCCN(C)C(=O)Cn1c(-c2ccoc2)c(C2CCCCC2)c2ccc(C(=O)O)cc21` [Example 1124] returned an IC50 of 200 to 1000 nM. The result for `CC(C)N1CCN(C(=O)Cn2c(-c3ccoc3)c(C3CCCCC3)c3ccc(C(=O)O)cc32)CC1` [Example 1125] reads less than 200 nM.

With `COCCN1CCN(C(=O)Cn2c(-c3ccoc3)c(C3CCCCC3)c3ccc(C(=O)O)cc32)CC1` [Example 1126], the IC50 is less than 200 nM. Compound `CS(=O)(=O)c1ccc(CNC(=O)Cn2c(-c3ccoc3)c(C3CCCCC3)c3ccc(C(=O)O)cc32)cc1` [Example 1127] showed an IC50 of less than 200 nM. For `O=C(O)c1ccc2c(C3CCCCC3)c(-c3ccoc3)n(CC(=O)N3C[C@@H](O)C[C@H]3C(=O)O)c2c1` [Example 1128] the value was less than 200 nM. For `CC(C)[C@@H](C(=O)O)N(C)C(=O)Cn1c(-c2ccoc2)c(C2CCCCC2)c2ccc(C(=O)O)cc21` [Example 1129] the value was less than 200 nM. For `CN(C)C(=O)CN1CCN(C(=O)Cn2c(-c3ccoc3)c(C3CCCCC3)c3ccc(C(=O)O)cc32)CC1` [Example 1130] the value was less than 200 nM; for `CN(C)C1CCN(C(=O)Cn2c(-c3ccoc3)c(C3CCCCC3)c3ccc(C(=O)O)cc32)C1` (centres unmarked) [Example 1131], less than 200 nM. Compound `CN(C)CC(=O)NNC(=O)Cn1c(-c2ccoc2)c(C2CCCCC2)c2ccc(C(=O)O)cc21` [Example 1132] gave an IC50 of less than 200 nM. For `O=C(Cn1c(-c2ccc(Br)cn2)c(C2CCCCC2)c2ccc(C(=O)O)cc21)N[C@@H](Cc1ccc(O)cc1)C(=O)O` [Example 1133] the value was 200 to 1000 nM; for `CN1CCN(C(=O)Cn2c(-c3ccc(Br)cn3)c(C3CCCCC3)c3ccc(C(=O)O)cc32)CC1` [Example 1134], 200 to 1000 nM. The compound `O=C(O)c1ccc2c(C3CCCCC3)c(-c3ccc(Br)cn3)n(CC(=O)N3CCC(C(=O)O)CC3)c2c1` [Example 1135] yielded an IC50 of 200 to 1000 nM. Compound `CN(C)C(=O)Cn1c(-c2ccc(Br)cn2)c(C2CCCCC2)c2ccc(C(=O)O)cc21` [Example 1136] showed an IC50 of 200 to 1000 nM.
